From the NIST ThermoML archive (doi:10.1021/je400056z)

Test: xn = mol fraction of the nth substance listed
Conditions: Liquid, Vibrating tube method

CCCCCCCCCCCCC [tridecane] + O=C=O
Conditions	mass density [kg/m3]
313.15 K, 9000 kPa, x2 = 0.0955	750.6
313.15 K, 9000 kPa, x2 = 0.2526	754.3
313.15 K, 9000 kPa, x2 = 0.7549	791.4
313.15 K, 9000 kPa, x2 = 0.8978	790.8
313.15 K, 10000 kPa, x2 = 0.0955	751.4
313.15 K, 10000 kPa, x2 = 0.2526	755.1
313.15 K, 10000 kPa, x2 = 0.7549	794.4
313.15 K, 10000 kPa, x2 = 0.8978	795.2
313.15 K, 11000 kPa, x2 = 0.0955	752.2
313.15 K, 11000 kPa, x2 = 0.2526	756
313.15 K, 11000 kPa, x2 = 0.7549	797.7
313.15 K, 11000 kPa, x2 = 0.8978	799.4
313.15 K, 12000 kPa, x2 = 0.0955	753
313.15 K, 12000 kPa, x2 = 0.2526	756.8
313.15 K, 12000 kPa, x2 = 0.7549	800.8
313.15 K, 12000 kPa, x2 = 0.8978	803.7
313.15 K, 13000 kPa, x2 = 0.0955	753.7
313.15 K, 13000 kPa, x2 = 0.2526	757.6
313.15 K, 13000 kPa, x2 = 0.7549	803.7
313.15 K, 13000 kPa, x2 = 0.8978	807.9
313.15 K, 14000 kPa, x2 = 0.0955	754.5
313.15 K, 14000 kPa, x2 = 0.2526	758.4
313.15 K, 14000 kPa, x2 = 0.7549	806.6
313.15 K, 14000 kPa, x2 = 0.8978	812
313.15 K, 15000 kPa, x2 = 0.0955	755.2
313.15 K, 15000 kPa, x2 = 0.2526	759.2
313.15 K, 15000 kPa, x2 = 0.7549	809.4
313.15 K, 15000 kPa, x2 = 0.8978	815.9
313.15 K, 16000 kPa, x2 = 0.0955	756
313.15 K, 16000 kPa, x2 = 0.2526	759.9
313.15 K, 16000 kPa, x2 = 0.7549	812.1
313.15 K, 16000 kPa, x2 = 0.8978	819.5
313.15 K, 17000 kPa, x2 = 0.0955	756.6
313.15 K, 17000 kPa, x2 = 0.2526	760.7
313.15 K, 17000 kPa, x2 = 0.7549	814.8
313.15 K, 17000 kPa, x2 = 0.8978	823.1
313.15 K, 18000 kPa, x2 = 0.0955	757.3
313.15 K, 18000 kPa, x2 = 0.2526	761.4
313.15 K, 18000 kPa, x2 = 0.7549	817.4
313.15 K, 18000 kPa, x2 = 0.8978	826.6
313.15 K, 19000 kPa, x2 = 0.0955	758
313.15 K, 19000 kPa, x2 = 0.2526	762.1
313.15 K, 19000 kPa, x2 = 0.7549	819.8
313.15 K, 19000 kPa, x2 = 0.8978	830.1
313.15 K, 20000 kPa, x2 = 0.0955	758.7
313.15 K, 20000 kPa, x2 = 0.2526	762.8
313.15 K, 20000 kPa, x2 = 0.7549	822.2
313.15 K, 20000 kPa, x2 = 0.8978	833.3
313.15 K, 21000 kPa, x2 = 0.0955	759.3
313.15 K, 21000 kPa, x2 = 0.2526	763.5
313.15 K, 21000 kPa, x2 = 0.7549	824.6
313.15 K, 21000 kPa, x2 = 0.8978	836.4
313.15 K, 22000 kPa, x2 = 0.0955	759.9
313.15 K, 22000 kPa, x2 = 0.2526	764.2
313.15 K, 22000 kPa, x2 = 0.7549	826.9
313.15 K, 22000 kPa, x2 = 0.8978	839.5
313.15 K, 23000 kPa, x2 = 0.0955	760.5
313.15 K, 23000 kPa, x2 = 0.2526	764.8
313.15 K, 23000 kPa, x2 = 0.7549	829.1
313.15 K, 23000 kPa, x2 = 0.8978	842.6
313.15 K, 24000 kPa, x2 = 0.0955	761.1
313.15 K, 24000 kPa, x2 = 0.2526	765.4
313.15 K, 24000 kPa, x2 = 0.7549	831.2
313.15 K, 24000 kPa, x2 = 0.8978	845.4
313.15 K, 25000 kPa, x2 = 0.0955	761.7
313.15 K, 25000 kPa, x2 = 0.2526	766
313.15 K, 25000 kPa, x2 = 0.7549	833.3
313.15 K, 25000 kPa, x2 = 0.8978	848.2
313.16 K, 8000 kPa, x2 = 0.5259	768.4
313.16 K, 9000 kPa, x2 = 0.5259	769.6
313.16 K, 10000 kPa, x2 = 0.5259	770.7
313.16 K, 11000 kPa, x2 = 0.5259	771.9
313.16 K, 12000 kPa, x2 = 0.5259	773
313.16 K, 13000 kPa, x2 = 0.5259	774.1
313.16 K, 14000 kPa, x2 = 0.5259	775.1
313.16 K, 15000 kPa, x2 = 0.5259	776.2
313.16 K, 16000 kPa, x2 = 0.5259	777.2
313.16 K, 17000 kPa, x2 = 0.5259	778.2
313.16 K, 18000 kPa, x2 = 0.5259	779.2
313.16 K, 19000 kPa, x2 = 0.5259	780.2
313.16 K, 20000 kPa, x2 = 0.5259	781.1
313.16 K, 21000 kPa, x2 = 0.5259	782
313.16 K, 23000 kPa, x2 = 0.5259	783.8
313.16 K, 24000 kPa, x2 = 0.5259	784.6
313.16 K, 25000 kPa, x2 = 0.5259	785.5
323.14 K, 11000 kPa, x2 = 0.8978	772.5
323.14 K, 12000 kPa, x2 = 0.8978	777.9
323.14 K, 13000 kPa, x2 = 0.8978	782.8
323.14 K, 14000 kPa, x2 = 0.8978	787.3
323.14 K, 15000 kPa, x2 = 0.8978	791.5
323.14 K, 16000 kPa, x2 = 0.8978	795.7
323.14 K, 17000 kPa, x2 = 0.8978	799.7
323.14 K, 18000 kPa, x2 = 0.8978	803.4
323.14 K, 19000 kPa, x2 = 0.8978	807.2
323.14 K, 20000 kPa, x2 = 0.8978	810.7
323.14 K, 21000 kPa, x2 = 0.8978	814
323.14 K, 22000 kPa, x2 = 0.8978	817.5
323.14 K, 23000 kPa, x2 = 0.8978	820.7
323.14 K, 24000 kPa, x2 = 0.8978	823.8
323.14 K, 25000 kPa, x2 = 0.8978	826.7
323.16 K, 9000 kPa, x2 = 0.0955	743.8
323.16 K, 9000 kPa, x2 = 0.2526	747
323.16 K, 10000 kPa, x2 = 0.0955	744.6
323.16 K, 10000 kPa, x2 = 0.2526	747.9
323.16 K, 11000 kPa, x2 = 0.0955	745.4
323.16 K, 11000 kPa, x2 = 0.2526	748.7
323.16 K, 11000 kPa, x2 = 0.7549	778.8
323.16 K, 12000 kPa, x2 = 0.0955	746.2
323.16 K, 12000 kPa, x2 = 0.2526	749.6
323.16 K, 12000 kPa, x2 = 0.7549	781.9
323.16 K, 13000 kPa, x2 = 0.0955	746.9
323.16 K, 13000 kPa, x2 = 0.2526	750.4
323.16 K, 13000 kPa, x2 = 0.7549	785.1
323.16 K, 14000 kPa, x2 = 0.0955	747.7
